# Assay results taken from ChEMBL document CHEMBL1671652, “Efficacy of piperacillin combined with the Penem beta-lactamase inhibitor BLI-489 in murine models of systemic infection” (2009).
# What was measured:
# Staphylococcus aureus [1] = assay: Antimicrobial activity against penicillinase producing Staphylococcus aureus GC 6468 infected in CD-1 mouse treated 30 and 150 mins postinfection in presence of beta-lactamase inhibitor Tazobactam; assay type: functional
# Pseudomonas aeruginosa [2] = assay: Antimicrobial activity against AmpC beta-lactamase producing Pseudomonas aeruginosa GC 1764 by broth microdilution method in presence of 8:1 ratio of compound to beta-lactamase inhibitor BLI-489; assay type: functional
# Pseudomonas aeruginosa [3] = assay: Antimicrobial activity against AmpC beta-lactamase producing Pseudomonas aeruginosa GC 1764 infected in CD-1 mouse treated 30 and 150 mins postinfection; assay type: functional
# Staphylococcus aureus [4] = assay: Antimicrobial activity against penicillinase producing Staphylococcus aureus GC 6468 infected in CD-1 mouse treated 30 and 150 mins postinfection; assay type: functional
# Pseudomonas aeruginosa [5] = assay: Antimicrobial activity against AmpC beta-lactamase producing Pseudomonas aeruginosa GC 1764 by broth microdilution method; assay type: functional
# Escherichia coli [6] = assay: Antimicrobial activity against OXA-1 beta-lactamase producing Escherichia coli GAR 5946 infected in CD-1 mouse treated 30 and 150 mins postinfection in presence of beta-lactamase inhibitor Tazobactam; assay type: functional
# Enterobacter cloacae [7] = assay: Antimicrobial activity against AmpC beta-lactamase producing Enterobacter cloacae GC 4142 infected in CD-1 mouse treated 30 and 150 min postinfection in presence of 10:1 ratio of compound to beta-lactamase inhibitor BLI-489; assay type: functional
# Escherichia coli [8] = assay: Antimicrobial activity against OXA-1 beta-lactamase producing Escherichia coli GAR 5946 infected in CD-1 mouse treated 30 and 150 mins postinfection; assay type: functional
# Klebsiella pneumoniae [9] = assay: Antimicrobial activity against SHV-1and SHV-5 beta-lactamase producing Klebsiella pneumoniae GAR 7978 by broth microdilution method in presence of beta-lactamase inhibitor Tazobactam; assay type: functional
# Enterobacter cloacae [10] = assay: Antimicrobial activity against AmpC beta-lactamase producing Enterobacter cloacae GC 4142 infected in CD-1 mouse treated 30 and 150 min postinfection; assay type: functional
# Staphylococcus aureus [11] = assay: Antimicrobial activity against penicillinase producing Staphylococcus aureus GC 6468 infected in CD-1 mouse treated 30 and 150 mins postinfection in presence of 8:1 ratio of compound to beta-lactamase inhibitor BLI-489; assay type: functional
# Klebsiella pneumoniae [12] = assay: Antimicrobial activity against SHV-11 beta-lactamase producing Klebsiella pneumoniae GAR 7693 by broth microdilution method; assay type: functional
# Enterobacter cloacae [13] = assay: Antimicrobial activity against AmpC beta-lactamase producing Enterobacter cloacae GC 4142 by broth microdilution method; assay type: functional
# Salmonella typhimurium [14] = assay: Antimicrobial activity against CTX-M-5 beta-lactamase producing Salmonella enterica serovar Typhimurium GC 4195 infected in CD-1 mouse treated 30 and 150 mins postinfection in presence of beta-lactamase inhibitor Tazobactam; assay type: functional, Salmonella enterica subsp. enterica serovar Typhimurium
# Escherichia coli [15] = assay: Antimicrobial activity against ACT-1 beta-lactamase producing Escherichia coli GC 2814 by broth microdilution method in presence of beta-lactamase inhibitor Tazobactam; assay type: functional
# Escherichia coli [16] = assay: Antimicrobial activity against TEM-1 beta-lactamase producing Escherichia coli GC 6265 by broth microdilution method in presence of 8:1 ratio of compound to beta-lactamase inhibitor BLI-489; assay type: functional
# Pseudomonas aeruginosa [17] = assay: Antimicrobial activity against AmpC beta-lactamase producing Pseudomonas aeruginosa GC 1764 infected in CD-1 mouse treated 30 and 150 mins postinfection in presence of 8:1 ratio of compound to beta-lactamase inhibitor BLI-489; assay type: functional
# Escherichia coli [18] = assay: Antimicrobial activity against OXA-1 beta-lactamase producing Escherichia coli GAR 5946 infected in CD-1 mouse treated 30 and 150 mins postinfection in presence of 8:1 ratio of compound to beta-lactamase inhibitor BLI-489; assay type: functional
# Klebsiella pneumoniae [19] = assay: Antimicrobial activity against SHV-1and SHV-5 beta-lactamase producing Klebsiella pneumoniae GAR 7978 infected in CD-1 mouse treated 30 and 150 mins postinfection; assay type: functional
# Klebsiella pneumoniae [20] = assay: Antimicrobial activity against SHV-11 beta-lactamase producing Klebsiella pneumoniae GAR 7693 by broth microdilution method in presence of beta-lactamase inhibitor Tazobactam; assay type: functional
# Klebsiella pneumoniae [21] = assay: Antimicrobial activity against SHV-1and SHV-5 beta-lactamase producing Klebsiella pneumoniae GAR 7978 by broth microdilution method; assay type: functional
# Escherichia coli [22] = assay: Antimicrobial activity against OXA-1 beta-lactamase producing Escherichia coli GAR 5946 by broth microdilution method in presence of beta-lactamase inhibitor Tazobactam; assay type: functional
# Pseudomonas aeruginosa [23] = assay: Antimicrobial activity against AmpC beta-lactamase producing Pseudomonas aeruginosa GC 1764 by broth microdilution method in presence of beta-lactamase inhibitor Tazobactam; assay type: functional
# Staphylococcus aureus [24] = assay: Antimicrobial activity against penicillinase producing Staphylococcus aureus GC 6468 by broth microdilution method; assay type: functional
# Escherichia coli [25] = assay: Antimicrobial activity against ACT-1 beta-lactamase producing Escherichia coli GC 2814 infected in CD-1 mouse treated 30 and 150 mins postinfection in presence of 8:1 ratio of compound to beta-lactamase inhibitor BLI-489; assay type: functional
# Enterobacter cloacae [26] = assay: Antimicrobial activity against AmpC beta-lactamase producing Enterobacter cloacae GC 4142 infected in CD-1 mouse treated 30 and 150 min postinfection in presence of 2:1 ratio of compound to beta-lactamase inhibitor BLI-489; assay type: functional
# Escherichia coli [27] = assay: Antimicrobial activity against ACT-1 beta-lactamase producing Escherichia coli GC 2814 by broth microdilution method in presence of 8:1 ratio of compound to beta-lactamase inhibitor BLI-489; assay type: functional
# Enterobacter cloacae [28] = assay: Antimicrobial activity against AmpC beta-lactamase producing Enterobacter cloacae GC 4142 by broth microdilution method in presence of beta-lactamase inhibitor Tazobactam; assay type: functional
# Escherichia coli [29] = assay: Antimicrobial activity against TEM-1 beta-lactamase producing Escherichia coli GC 6265 infected in CD-1 mouse treated 30 mins postinfection in presence of 8:1 ratio of compound to beta-lactamase inhibitor BLI-489; assay type: functional; details: GC 6265, 0.5 h
# Escherichia coli [30] = assay: Antimicrobial activity against TEM-10 beta-lactamase producing Escherichia coli GC 2022 infected in CD-1 mouse treated 30 mins postinfection in presence of 8:1 ratio of compound to beta-lactamase inhibitor BLI-489; assay type: functional; details: GC 2022, 0.5 h
# Escherichia coli [31] = assay: Antimicrobial activity against TEM-1 beta-lactamase producing Escherichia coli GC 6265 infected in CD-1 mouse treated 30 mins postinfection in presence of 4:1 ratio of compound to beta-lactamase inhibitor BLI-489; assay type: functional; details: GC 6265, 0.5 h
# Pseudomonas aeruginosa [32] = assay: Antimicrobial activity against AmpC beta-lactamase producing Pseudomonas aeruginosa GC 1764 infected in CD-1 mouse treated 30 and 150 mins postinfection in presence of beta-lactamase inhibitor Tazobactam; assay type: functional
# Salmonella typhimurium [33] = assay: Antimicrobial activity against CTX-M-5 beta-lactamase producing Salmonella enterica serovar Typhimurium GC 4195 infected in CD-1 mouse treated 30 and 150 mins postinfection in presence of 8:1 ratio of compound to beta-lactamase inhibitor BLI-489; assay type: functional, Salmonella enterica subsp. enterica serovar Typhimurium
# Salmonella typhimurium [34] = assay: Antimicrobial activity against CTX-M-5 beta-lactamase producing Salmonella enterica serovar Typhimurium GC 4195 by broth microdilution method in presence of beta-lactamase inhibitor Tazobactam; assay type: functional, Salmonella enterica subsp. enterica serovar Typhimurium
# Enterobacter cloacae [35] = assay: Antimicrobial activity against AmpC beta-lactamase producing Enterobacter cloacae GC 4142 by broth microdilution method in presence of 8:1 ratio of compound to beta-lactamase inhibitor BLI-489; assay type: functional
structure (smiles),measurement,setting,value
CCN1CCN(C(=O)N[C@@H](C(=O)N[C@@H]2C(=O)N3[C@@H]2SC(C)(C)[C@@H]3C(=O)O)c2ccccc2)C(=O)C1=O [PIPERACILLIN],ED50,Staphylococcus aureus [1],16 mg/kg
same,MIC,Pseudomonas aeruginosa [2],4 µg/mL
same,ED50,Pseudomonas aeruginosa [3],980 mg/kg
same,ED50,Staphylococcus aureus [4],418 mg/kg
same,MIC,Pseudomonas aeruginosa [5],> 64 µg/mL
same,ED50,Escherichia coli [6],270 mg/kg
same,ED50,Enterobacter cloacae [7],47 mg/kg
same,ED50,Escherichia coli [8],980 mg/kg
same,MIC,Klebsiella pneumoniae [9],> 64 µg/mL
same,ED50,Enterobacter cloacae [10],282 mg/kg
same,ED50,Staphylococcus aureus [11],12 mg/kg
same,MIC,Klebsiella pneumoniae [12],2 µg/mL
same,MIC,Enterobacter cloacae [13],8 µg/mL
same,ED50,Salmonella typhimurium [14],152 mg/kg
same,MIC,Escherichia coli [15],> 64 µg/mL
same,MIC,Escherichia coli [16],4 µg/mL
same,ED50,Pseudomonas aeruginosa [17],103 mg/kg
same,ED50,Escherichia coli [18],86 mg/kg
same,ED50,Klebsiella pneumoniae [19],245 mg/kg
same,MIC,Klebsiella pneumoniae [20],> 64 µg/mL
same,MIC,Klebsiella pneumoniae [21],> 64 µg/mL
same,MIC,Escherichia coli [22],0.25 µg/mL
same,MIC,Pseudomonas aeruginosa [23],32 µg/mL
same,MIC,Staphylococcus aureus [24],> 64 µg/mL
same,ED50,Escherichia coli [25],13 mg/kg
same,ED50,Enterobacter cloacae [26],31 mg/kg
same,MIC,Escherichia coli [27],> 64 µg/mL
same,MIC,Enterobacter cloacae [28],4 µg/mL
same,ED50,Escherichia coli [29],12 mg/kg
same,ED50,Escherichia coli [30],40 mg/kg
same,ED50,Escherichia coli [31],12 mg/kg
same,ED50,Pseudomonas aeruginosa [32],246 mg/kg
same,ED50,Salmonella typhimurium [33],45 mg/kg
same,MIC,Salmonella typhimurium [34],> 64 µg/mL
same,MIC,Enterobacter cloacae [35],> 64 µg/mL
